What was measured:
glucocorticoid receptor = molecular target: T1, glucocorticoid receptor (Homo sapiens, UniProt P04150); assay: Glucocorticoid Receptor Binding Assay (Method 1); conditions: A549 cell extract, [3H]-dexamethasone, read-out: GR Ki
T1 construct: containing 50-200 ug of A549 cell extract and 1.86 nM [^3H]-dexamethasone; host or cells: A549 human lung epithelial cells
T1 sequence (P04150 1-777): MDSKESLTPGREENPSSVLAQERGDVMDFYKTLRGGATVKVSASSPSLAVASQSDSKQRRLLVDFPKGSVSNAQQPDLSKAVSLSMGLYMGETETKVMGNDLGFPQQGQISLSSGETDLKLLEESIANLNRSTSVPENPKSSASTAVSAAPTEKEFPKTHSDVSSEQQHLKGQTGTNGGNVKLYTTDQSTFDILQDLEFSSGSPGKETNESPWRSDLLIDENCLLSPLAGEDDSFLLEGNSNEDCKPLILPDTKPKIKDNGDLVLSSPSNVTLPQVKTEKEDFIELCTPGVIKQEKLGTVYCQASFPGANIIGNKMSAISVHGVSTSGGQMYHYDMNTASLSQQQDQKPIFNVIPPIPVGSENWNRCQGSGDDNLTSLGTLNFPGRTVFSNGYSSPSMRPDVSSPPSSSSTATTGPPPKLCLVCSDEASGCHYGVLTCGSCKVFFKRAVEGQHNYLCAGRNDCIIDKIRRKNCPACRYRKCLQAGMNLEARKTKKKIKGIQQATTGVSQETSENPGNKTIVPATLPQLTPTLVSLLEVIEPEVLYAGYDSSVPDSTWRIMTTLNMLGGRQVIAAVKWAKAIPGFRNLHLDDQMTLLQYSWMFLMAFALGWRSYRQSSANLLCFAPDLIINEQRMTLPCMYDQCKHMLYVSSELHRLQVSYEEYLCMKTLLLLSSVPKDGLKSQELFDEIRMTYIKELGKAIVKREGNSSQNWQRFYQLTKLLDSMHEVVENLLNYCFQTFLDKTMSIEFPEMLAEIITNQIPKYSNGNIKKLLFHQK
Procedure: A549 human lung epithelial cells (ATCC) are grown at a scale where gram quantity cell pellets are obtained. Harvested cell pellets are washed twice in cold phosphate buffered saline, centrifuged, and resuspended in cold assay binding buffer. The assay binding buffer consists of 10% glycerol, 50 mM Tris-HCl (pH7.2), 75 mM sodium chloride, 1.5 mM magnesium chloride, 1.5 mM EDTA, and 10 mM sodium molybdate. Cell suspensions were lysed via sonication, centrifuged, and the “extract” supernatant is snap frozen and stored at −80 C until needed.
GR binding assays are performed in a final volume of 140 ul containing 50-200 ug of A549 cell extract and 1.86 nM [^3H]-dexamethasone (Amersham) plus varying concentrations of test compound or vehicle. Briefly, assays are prepared at RT in 96-well Fisher 3356 plates, each well containing 100 ul of A549 cell extract, 20 ul of [^3H]-dexamethasone, and 20 ul of test compound/vehicle. Incubations are carried out at 4 degrees Celsius for 16 hours. After incubation, 70 ul of 3× dextran-coated charcoal solution is added to each reaction, mixed, and incubated for 8 minutes at RT. […] 200 ul of Microscint-20 scinillant (Packard Instruments) is added to each well and amount of receptor bound radioligand is determined using Packard Instruments TopCount instrument.

human MR = molecular target: T2, human MR (Homo sapiens, UniProt P08235); assay: Mineralocorticoid Receptor Binding Assay (Method 1); conditions: [3H]-aldosterone
T2 construct: The full length human MR gene is cloned from a human kidney or human brain cDNA library; made in house; host or cells: SF9 insect cells (baculovirus)
T2 sequence (P08235 1-984): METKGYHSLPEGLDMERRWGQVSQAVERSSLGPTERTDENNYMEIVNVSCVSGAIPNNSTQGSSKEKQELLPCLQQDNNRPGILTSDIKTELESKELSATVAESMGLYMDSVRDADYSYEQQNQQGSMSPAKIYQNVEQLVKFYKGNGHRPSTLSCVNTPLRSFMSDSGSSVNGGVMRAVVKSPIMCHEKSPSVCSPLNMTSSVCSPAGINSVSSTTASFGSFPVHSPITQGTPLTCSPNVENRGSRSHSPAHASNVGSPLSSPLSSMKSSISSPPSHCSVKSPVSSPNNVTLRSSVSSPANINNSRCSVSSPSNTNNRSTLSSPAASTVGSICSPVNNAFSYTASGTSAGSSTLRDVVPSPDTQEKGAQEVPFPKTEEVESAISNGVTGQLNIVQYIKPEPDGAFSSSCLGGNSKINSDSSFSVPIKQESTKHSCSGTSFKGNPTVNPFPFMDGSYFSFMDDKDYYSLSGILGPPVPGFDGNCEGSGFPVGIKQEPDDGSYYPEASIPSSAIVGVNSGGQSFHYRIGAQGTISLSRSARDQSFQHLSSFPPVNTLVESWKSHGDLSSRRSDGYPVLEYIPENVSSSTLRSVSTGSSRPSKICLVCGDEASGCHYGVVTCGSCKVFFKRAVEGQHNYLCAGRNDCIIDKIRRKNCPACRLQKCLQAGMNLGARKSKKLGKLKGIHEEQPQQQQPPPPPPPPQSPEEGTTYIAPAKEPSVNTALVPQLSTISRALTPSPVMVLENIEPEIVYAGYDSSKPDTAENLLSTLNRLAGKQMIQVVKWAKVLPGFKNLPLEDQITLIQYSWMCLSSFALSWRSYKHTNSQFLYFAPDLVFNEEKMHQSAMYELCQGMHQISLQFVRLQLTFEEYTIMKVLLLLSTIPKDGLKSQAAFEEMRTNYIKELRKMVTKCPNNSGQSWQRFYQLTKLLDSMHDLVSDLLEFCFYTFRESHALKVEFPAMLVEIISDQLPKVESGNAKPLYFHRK
Procedure: The full length human MR gene is cloned from a human kidney or human brain cDNA library. Briefly, using synthetic oligonucleotide primers (Eli Lilly and Company, Indianapolis) directed to nucleotides 20-54 and 3700-3666 of the human MR, polymerase chain reaction (PCR) is performed under standard conditions using a human cDNA library. The PCR reaction is performed in a final volume of 50 μl containing about 1 μl of a 50× stock solution of polymerase; about 1 μl of a 50× stock solution of DNTP; about 5 μl of an appropriate PCR buffer; about 1 μl of each primer; about 5 μl of a H. kidney or H. brain cDNA library; and about 36 μl of water. The reaction is allowed to denature for about 30 seconds at 95 degrees Celsius, anneal for about 30 seconds at 55 degrees Celsius, and extend for about 5 minutes at 72 degrees Celsius, the sequence being repeated for a total of about 35 cycles. The desired PCR product (3.68 Kb) is confirmed by gel electrophoresis and subsequently cut from the gel and stored at about −20 degrees Celsius until extraction. To extract the cDNA product from the agarose gel, the QIAEX II Gel Extraction protocol (QIAGEN, Inc.) is employed according to the manufacturer's instructions. Following extraction, the MR cDNA is cloned into an appropriate cloning vector (Zero Blunt TOPO PCR Cloning Kit (Invitrogen, Inc.) and a pAcHLT-baculovirus transfer vector (B.D./Pharminogen), then expressed in SF9 insect cells, essentially according to manufacturer's instructions. Sf9 cells are grown at a scale where gram quantity cell pellets are obtained for subsequent use in the MR binding assay. Harvested cell pellets are lysed by repeated freeze-thaw cycles (about 4) in a suitable lysis buffer then centrifuged at about 1×10^3 G (with the supernatant being saved for future assays).
MR binding assays are performed in a final total volume of about 250 μl containing about 20-25 μg of protein and 0.5 nM of [^3H]-aldosterone plus varying concentrations of test compound or vehicle. The assay binding buffer consists of 30 mM sodium molybdate, 30 mM of TRIS-HCl, 5 mM sodium phosphate, 5 mM sodium pyrophosphate, and about 10% glycerol, pH=7.5.
Briefly, assays are prepared at RT in 96-well Falcon 3072 plates, each well containing 210 μl of binding buffer, 10 μl of [^3H]-aldosterone, 10 μl of test compound/vehicle, and 20 μl of the resuspended receptor protein extract. Incubations are carried out at 4 degrees Celsius with shaking for about 16 hours. 200 μl aliquots of each incubation are filtered onto Millipore HA 0.45 micron 96-well filter plates, pre-moistened with cold 30 mM TRIS-HCl. The filter plates are suctioned dry with vacuum and immediately washed 3× with cold 30 mM TRIS-HCl. The plates are then punched out and the amount of receptor-ligand complex is determined by liquid scintillation counting using 4 ml of Ready Protein Plus™ liquid scintillation cocktail.

[1] = in combination with standard CHF therapy, patients suffering from advanced CHF; cited from earlier work

| Compound | Ki (human MR) [µM] | also measured |
| --- | --- | --- |
| O=c1[nH]c2cc(C=C3c4ccc(F)cc4CCc4cc(F)ccc43)ccc2n1CCCN1CCOCC1 [Example 48] | < 0.5 |  |
| O=c1[nH]c2cc(C=C3c4ccc(F)cc4CCc4cc(F)ccc43)ccc2n1CCN1CCNCC1 [Example 49] | < 0.5 |  |
| CN1CCN(CCn2c(=O)[nH]c3cc(C=C4c5ccc(F)cc5CCc5cc(F)ccc54)ccc32)CC1 [Example 52] | < 0.5 |  |
| CC(=O)S[C@@H]1CC2=CC(=O)CC[C@]2(C)[C@H]2CC[C@@]3(C)[C@@H](CC[C@@]34CCC(=O)O4)[C@H]12 [spironolactone] |  | reduced cardiac related mortality [1]: 30%; reduced frequency of hospitalization [1]: 35% |

Now from value to compound, other results behind:

| Ki (human MR) [µM] | Compound | also measured |
| --- | --- | --- |
| < 0.5 | CN(C)CCn1c(=O)[nH]c2cc(/C=C3\c4ccccc4COc4cc(F)ccc43)ccc21 [Example 6] | Ki (glucocorticoid receptor): < 10 µM |
| < 0.5 | CN1CC[C@@H](n2c(=O)[nH]c3cc(/C=C4/c5ccc(F)cc5OCc5c(F)cccc54)ccc32)C1 [Example 47] |  |
| < 0.5 | O=c1[nH]c2cc(C=C3c4ccc(F)cc4CCc4cc(F)ccc43)ccc2n1CCN1CCCC1 [Example 50] |  |
| < 0.5 | CN(C)CCn1c(=O)[nH]c2cc(C=C3c4ccc(F)cc4CCc4cc(F)ccc43)ccc21 [Example 51] |  |

From patent publication US20070037788A1, “Tricyclic steroid hormone nuclear receptor modulators” (Eli Lilly and Company, priority 2003, published 2007)
